Assay results published in patent US20060147992A1, “Method for detection of bioactive peptides” (priority 2002, published 2006).

System: platelets
Experiment: luminometric determination of collagen-induced ATP release from platelets
Format: cell-based
Details: platelet rich plasma, 2 μg/ml collagen, RGDS 30 μM; p<0.002 versus collagen alone
From the text: Miniaturised (96 well format) high-throughput screening assays capable of assessing platelet activation that are suitable for screening potential anti-thrombotic agents have been developed. The primary assay is based on the phenomenon that platelet activation results in a substantial release of ATP from dense granules. Released ATP is then rapidly quantitated in a plate reader using bioluminescence and is proportional to the extent of platelet activation.
Platelet rich plasma was stimulated by automated injection of 2 μg/ml collagen in the presence or absence of commercially available RGDS (30 μM). Relative light output was then measured automatically in a BMG Fluostar plate reader.
Fibrinogen was digested with either Lys-C (A) or trypsin (B) prior to fractionation as described in FIGS. 2 and 3.

RGDS
inhibition of collagen-induced ATP release: 30%
